Tests used:
Type in all cases: in vivo
[1] = test system: Solanum nigrum (SOLNI); assay: Post-emergence biological efficacy, glasshouse, 500 or 1000 g/ha, evaluated after 13 days (100=total damage to plant; 0=no damage to plant); conditions: Solanum nigrum, 312 h, rate 1,000 g/ha, read-out: Percentage damage caused to weed species, post-emergence, SOLNI
Outline: (§1)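 Plants raised from seed in pots of standard soil receive the spray after emergence. They then grow on under controlled glasshouse conditions (24/16° C. day/night, 14 hours light, 65% humidity) and are watered twice a day.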

[2] = test system: Echinochloa crusgaffi (ECHCG); assay: as above; conditions: Echinochloa, 312 h, rate 1,000 g/ha, read-out: Percentage damage caused to weed species, post-emergence, ECHCG
Outline: as §1

[3] = test system: Alopecurus myosuroides (ALOMY); assay: as above; conditions: Alopecurus myosuroides, 312 h, rate 1,000 g/ha, read-out: Percentage damage caused to weed species, post-emergence, ALOMY
Outline: as §1

[4] = test system: Ipomoea hederaceae (IPOHE); assay: as above; conditions: Ipomoea, 312 h, rate 1,000 g/ha, read-out: Percentage damage caused to weed species, post-emergence, IPOHE
Outline: as §1

[5] = test system: Amaranthus retroflexus (AMARE); assay: as above; conditions: Amaranthus retroflexus, 312 h, rate 1,000 g/ha, read-out: Percentage damage caused to weed species, post-emergence, AMARE
Outline: as §1

[6] = test system: Setaria faberi (SETFA); assay: as above; conditions: Setaria faberi, 312 h, rate 1,000 g/ha, read-out: Percentage damage caused to weed species, post-emergence, SETFA
Outline: as §1

[7] = test system: Solanum nigrum (SOLNI); assay: Pre-emergence biological efficacy, glasshouse, 1000 g/ha, evaluated after 13 days (100=total damage to plant; 0=no damage to plant); conditions: Solanum nigrum, 312 h, rate 1,000 g/ha, read-out: Percentage damage caused to weed species, pre-emergence, SOLNI
Outline: (§2)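 Glasshouse conditions were controlled at 24/16° C. day/night with a 14-hour photoperiod and 65% humidity; pots contained standard soil into which seeds had been sown, and plants were watered twice daily.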

[8] = test system: Alopecurus myosuroides (ALOMY); assay: as above; conditions: Alopecurus myosuroides, 312 h, rate 1,000 g/ha, read-out: Percentage damage caused to weed species, pre-emergence, ALOMY
Outline: as §2

[9] = test system: Ipomoea hederaceae (IPOHE); assay: as above; conditions: Ipomoea, 312 h, rate 1,000 g/ha, read-out: Percentage damage caused to weed species, pre-emergence, IPOHE
Outline: as §2

[10] = test system: Amaranthus retroflexus (AMARE); assay: as above; conditions: Amaranthus retroflexus, 312 h, rate 1,000 g/ha, read-out: Percentage damage caused to weed species, pre-emergence, AMARE
Outline: as §2

[11] = test system: Setaria faberi (SETFA); assay: as above; conditions: Setaria faberi, 312 h, rate 1,000 g/ha, read-out: Percentage damage caused to weed species, pre-emergence, SETFA
Outline: as §2

[12] = test system: Echinochloa crus-galli (ECHCG); assay: as above; conditions: Echinochloa crus-galli, 312 h, rate 1,000 g/ha, read-out: Percentage damage caused to weed species, pre-emergence, ECHCG
Outline: as §2

SMILES: COc1c(Cl)ccc(-c2nc(C(=O)O)c3c(C)cn(C(C)c4ccccc4)c3n2)c1F (stereo not drawn) [Compound 7-63, 4-Carboxy-2-(4-chloro-2-fluoro-3-methoxyphenyl)-5-methyl-7-(1-phenyl-ethyl)-7H-pyrrolo[2,3-d]pyrimidine]
- pest or weed control at 1000 g/ha [1]: 60%
- pest or weed control at 1000 g/ha [2]: 0%
- pest or weed control at 1000 g/ha [3]: 0%
- pest or weed control at 1000 g/ha [4]: 10%
- pest or weed control at 1000 g/ha [5]: 20%
- pest or weed control at 1000 g/ha [6]: 10%
- pest or weed control at 1000 g/ha [7]: 0%
- pest or weed control at 1000 g/ha [8]: 0%
- pest or weed control at 1000 g/ha [9]: 0%
- pest or weed control at 1000 g/ha [10]: 0%
- pest or weed control at 1000 g/ha [11]: 0%
- pest or weed control at 1000 g/ha [12]: 0%

SMILES: O=C(O)c1nc(C2CC2)nc2c1ccn2Cc1ccccc1[N+](=O)[O-] [Compound 8-1, 4-Carboxy-2-cyclopropyl-7-(2-nitrophenyl-methyl)-7H-pyrrolo[2,3-d]pyrimidine]
- pest or weed control at 1000 g/ha [1]: 30%
- pest or weed control at 1000 g/ha [2]: 10%
- pest or weed control at 1000 g/ha [3]: 0%
- pest or weed control at 1000 g/ha [4]: 40%
- pest or weed control at 1000 g/ha [5]: 0%
- pest or weed control at 1000 g/ha [6]: 0%
- pest or weed control at 1000 g/ha [7]: 0%
- pest or weed control at 1000 g/ha [8]: 0%
- pest or weed control at 1000 g/ha [9]: 0%
- pest or weed control at 1000 g/ha [10]: 0%
- pest or weed control at 1000 g/ha [11]: 0%
- pest or weed control at 1000 g/ha [12]: 0%

SMILES: COC(=O)c1nc(C2CC2)nc2c1ccn2Cc1ccccc1[N+](=O)[O-] [Compound 8-2, 2-Cyclopropyl-4-methoxycarbonyl-7-(2-nitrophenyl-methyl)-7H-pyrrolo[2,3-d]pyrimidine]
- pest or weed control at 1000 g/ha [1]: 20%
- pest or weed control at 1000 g/ha [2]: 0%
- pest or weed control at 1000 g/ha [3]: 0%
- pest or weed control at 1000 g/ha [4]: 20%
- pest or weed control at 1000 g/ha [5]: 0%
- pest or weed control at 1000 g/ha [6]: 0%
- pest or weed control at 1000 g/ha [7]: 0%
- pest or weed control at 1000 g/ha [8]: 0%
- pest or weed control at 1000 g/ha [9]: 0%
- pest or weed control at 1000 g/ha [10]: 0%
- pest or weed control at 1000 g/ha [11]: 0%
- pest or weed control at 1000 g/ha [12]: 0%

SMILES: Cc1cc2c(C(=O)O)nc(C3CC3)nc2n1Cc1ccccc1[N+](=O)[O-] [Compound 8-5, 4-Carboxy-2-cyclopropyl-6-methyl-7-(2-nitrophenyl-methyl)-7H-pyrrolo[2,3-d]pyrimidine]
- pest or weed control at 1000 g/ha [1]: 0%
- pest or weed control at 1000 g/ha [2]: 0%
- pest or weed control at 1000 g/ha [3]: 0%
- pest or weed control at 1000 g/ha [4]: 0%
- pest or weed control at 1000 g/ha [5]: 0%
- pest or weed control at 1000 g/ha [6]: 0%
- pest or weed control at 1000 g/ha [7]: 0%
- pest or weed control at 1000 g/ha [8]: 0%
- pest or weed control at 1000 g/ha [9]: 0%
- pest or weed control at 1000 g/ha [10]: 0%
- pest or weed control at 1000 g/ha [11]: 0%
- pest or weed control at 1000 g/ha [12]: 0%

SMILES: COC(=O)c1nc(C2CC2)nc2c1cc(C)n2Cc1ccccc1[N+](=O)[O-] [Compound 8-6, 2-Cyclopropyl-4-methoxycarbonyl-6-methyl-7-(2-nitrophenyl-methyl)-7H-pyrrolo[2,3-d]pyrimidine]
- pest or weed control at 1000 g/ha [1]: 20%
- pest or weed control at 1000 g/ha [2]: 0%
- pest or weed control at 1000 g/ha [3]: 0%
- pest or weed control at 1000 g/ha [4]: 50%
- pest or weed control at 1000 g/ha [5]: 20%
- pest or weed control at 1000 g/ha [6]: 0%
- pest or weed control at 1000 g/ha [7]: 0%
- pest or weed control at 1000 g/ha [8]: 0%
- pest or weed control at 1000 g/ha [9]: 0%
- pest or weed control at 1000 g/ha [10]: 0%
- pest or weed control at 1000 g/ha [11]: 0%
- pest or weed control at 1000 g/ha [12]: 0%

SMILES: O=C(O)c1nc(-c2ccc(Cl)c(F)c2)nc2c1ccn2Cc1ccccc1[N+](=O)[O-] [Compound 8-17, 4-Carboxy-2-(4-chloro-3-fluorophenyl)-7-(2-nitropheny-methyl)-7H-pyrrolo[2,3-d]pyrimidine]
- pest or weed control at 1000 g/ha [1]: 50%
- pest or weed control at 1000 g/ha [2]: 0%
- pest or weed control at 1000 g/ha [3]: 0%
- pest or weed control at 1000 g/ha [4]: 50%
- pest or weed control at 1000 g/ha [5]: 20%
- pest or weed control at 1000 g/ha [6]: 0%
- pest or weed control at 1000 g/ha [7]: 0%
- pest or weed control at 1000 g/ha [8]: 0%
- pest or weed control at 1000 g/ha [9]: 0%
- pest or weed control at 1000 g/ha [10]: 0%
- pest or weed control at 1000 g/ha [11]: 0%
- pest or weed control at 1000 g/ha [12]: 0%

SMILES: COC(=O)c1nc(-c2ccc(Cl)c(F)c2)nc2c1ccn2Cc1ccccc1[N+](=O)[O-] [Compound 8-18, 2-(4-Chloro-3-fluorophenyl)-4-methoxycarbonyl-7-(2-nitrophenyl-methyl)-7H-pyrrolo[2,3-d]pyrimidine]
- pest or weed control at 1000 g/ha [1]: 30%
- pest or weed control at 1000 g/ha [2]: 0%
- pest or weed control at 1000 g/ha [3]: 0%
- pest or weed control at 1000 g/ha [4]: 20%
- pest or weed control at 1000 g/ha [5]: 0%
- pest or weed control at 1000 g/ha [6]: 0%
- pest or weed control at 1000 g/ha [7]: 0%
- pest or weed control at 1000 g/ha [8]: 0%
- pest or weed control at 1000 g/ha [9]: 0%
- pest or weed control at 1000 g/ha [10]: 0%
- pest or weed control at 1000 g/ha [11]: 0%
- pest or weed control at 1000 g/ha [12]: 0%

SMILES: COc1c(Cl)ccc(-c2nc(C(=O)O)c3c(C)cn(Cc4ccccc4[N+](=O)[O-])c3n2)c1F [Compound 8-63, 4-Carboxy-2-(4-chloro-2-fluoro-3-methoxyphenyl)-5-methyl-7-(2-nitrophenyl-methyl)-7H-pyrrolo[2 ,3-d]pyrimidine]
- pest or weed control at 1000 g/ha [1]: 80%
- pest or weed control at 1000 g/ha [2]: 50%
- pest or weed control at 1000 g/ha [3]: 10%
- pest or weed control at 1000 g/ha [4]: 60%
- pest or weed control at 1000 g/ha [5]: 70%
- pest or weed control at 1000 g/ha [6]: 20%
- pest or weed control at 1000 g/ha [7]: 40%
- pest or weed control at 1000 g/ha [8]: 0%
- pest or weed control at 1000 g/ha [9]: 30%
- pest or weed control at 1000 g/ha [10]: 10%
- pest or weed control at 1000 g/ha [11]: 0%
- pest or weed control at 1000 g/ha [12]: 0%

SMILES: COc1c(Cl)ccc(-c2nc(C(=O)O)c3cc(C)n(Cc4ccccc4[N+](=O)[O-])c3n2)c1F [Compound 8-65, 4-Carboxy-2-(4-chloro-2-fluoro-3-methoxyphenyl)-6-methyl-7-(2-nitrophenyl-methyl)-7H-pyrrolo[2,3-d]pyrimidine]
- pest or weed control at 1000 g/ha [1]: 10%
- pest or weed control at 1000 g/ha [2]: 0%
- pest or weed control at 1000 g/ha [3]: 0%
- pest or weed control at 1000 g/ha [4]: 10%
- pest or weed control at 1000 g/ha [5]: 0%
- pest or weed control at 1000 g/ha [6]: 20%
- pest or weed control at 1000 g/ha [7]: 0%
- pest or weed control at 1000 g/ha [8]: 0%
- pest or weed control at 1000 g/ha [9]: 0%
- pest or weed control at 1000 g/ha [10]: 0%
- pest or weed control at 1000 g/ha [11]: 0%
- pest or weed control at 1000 g/ha [12]: 0%

SMILES: COC(=O)c1nc(-c2ccc(Cl)c(OC)c2F)nc2c1cc(C)n2Cc1ccccc1[N+](=O)[O-] [Compound 8-66, 2-(4-Chloro-2-fluoro-3-methoxyphenyl)-4-methoxycarbonyl-6-methyl-7-(2-nitrophenyl-methyl)-7H-pyrrolo[2,3-d]pyrimidine]
- pest or weed control at 1000 g/ha [1]: 30%
- pest or weed control at 1000 g/ha [2]: 0%
- pest or weed control at 1000 g/ha [3]: 0%
- pest or weed control at 1000 g/ha [4]: 10%
- pest or weed control at 1000 g/ha [5]: 0%
- pest or weed control at 1000 g/ha [6]: 0%
- pest or weed control at 1000 g/ha [7]: 10%
- pest or weed control at 1000 g/ha [8]: 0%
- pest or weed control at 1000 g/ha [9]: 0%
- pest or weed control at 1000 g/ha [10]: 10%
- pest or weed control at 1000 g/ha [11]: 0%
- pest or weed control at 1000 g/ha [12]: 0%

SMILES: COc1c(Cl)ccc(-c2nc(C(=O)O)c3c(C)cn(Cc4ccc(F)cc4)c3n2)c1F [Compound 9-63]
- pest or weed control at 1000 g/ha [1]: 60%
- pest or weed control at 1000 g/ha [2]: 0%
- pest or weed control at 1000 g/ha [3]: 0%
- pest or weed control at 1000 g/ha [4]: 40%
- pest or weed control at 1000 g/ha [5]: 20%
- pest or weed control at 1000 g/ha [6]: 0%
- pest or weed control at 1000 g/ha [7]: 10%
- pest or weed control at 1000 g/ha [8]: 0%
- pest or weed control at 1000 g/ha [9]: 0%
- pest or weed control at 1000 g/ha [10]: 20%
- pest or weed control at 1000 g/ha [11]: 0%
- pest or weed control at 1000 g/ha [12]: 0%
